Assay results published in patent US20220017433A1 (UNIVERSITÄT ZÜRICH, priority 2018, published 2022).

Test: Water solubility of the chelating compounds
Format: physicochemical
Settings: aqueous stock solution, pH lowered with HCl

pH below which the compound starts to precipitate slowly: ~9
Substance: Desferrioxamine-p-arylazide [DFO-ArN3]
